Reference: paper PMC4657239, “BluB/CobT2 fusion enzyme activity reveals mechanisms responsible for production of active form of vitamin B12 by Propionibacterium freudenreichii” (Microbial Cell Factories, 2015)

Biological target: T1, BluB/CobT2 (Propionibacterium freudenreichii, UniProt D7GJ95)
T1 construct: E. coli KRX, pFN18A; HaloTag removed by HaloTEV; N-terminal SDNA replaces initial Met
Test: LC-ESI-MS of alpha-ribazole phosphate formed
Format: biochemical
Settings: 200 µM NaMN, 100 µM DMBI, 1 mM DTT, Tris-HCl pH 8.5, room temperature; CobT activity

T1 sequence (D7GJ95 entry or part of it): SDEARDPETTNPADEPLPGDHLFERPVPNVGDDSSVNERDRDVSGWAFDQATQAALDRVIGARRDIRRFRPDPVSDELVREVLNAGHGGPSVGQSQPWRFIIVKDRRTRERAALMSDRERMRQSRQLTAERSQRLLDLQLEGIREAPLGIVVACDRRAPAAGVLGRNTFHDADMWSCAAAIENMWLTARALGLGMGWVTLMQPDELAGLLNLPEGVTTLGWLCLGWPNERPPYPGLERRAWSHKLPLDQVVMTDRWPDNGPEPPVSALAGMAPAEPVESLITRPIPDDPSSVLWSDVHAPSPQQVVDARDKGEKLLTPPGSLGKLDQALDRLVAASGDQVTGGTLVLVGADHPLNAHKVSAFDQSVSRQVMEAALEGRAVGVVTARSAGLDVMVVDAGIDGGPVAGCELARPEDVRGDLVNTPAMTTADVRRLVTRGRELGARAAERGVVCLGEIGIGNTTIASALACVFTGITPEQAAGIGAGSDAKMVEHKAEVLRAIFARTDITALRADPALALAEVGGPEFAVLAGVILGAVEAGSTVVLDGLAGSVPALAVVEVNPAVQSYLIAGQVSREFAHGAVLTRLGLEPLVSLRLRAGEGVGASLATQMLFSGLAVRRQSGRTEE

O=C([O-])c1ccc[n+]([C@@H]2O[C@H](COP(=O)(O)O)[C@@H](O)[C@H]2O)c1 [NaMN]
LC-ESI-MS of alpha-ribazole phosphate formed: confirms that NaMN is the preferred substrate
